Assay results from patent US20220380374A1, “1,4-DIHYDROBENZO[D]PYRAZOLO[3,4-F][1,3]DIAZEPINE DERIVATIVES AND RELATED COMPOUNDS AS LRRK2, NUAK1 AND/OR TYK2 KINASE MODULATORS FOR THE TREATMENT OF E.G. AUTOIMMUNE DISEASE” (Origenis GMBH, priority 2019, published 2022).
pIC50: −log10 of the molar value.

Experiments:
[1] = molecular target: T1, wt human TYK2, catalytic site (Homo sapiens, UniProt P29597); experiment: HTRF KinEASE assay, TYK2; type: biochemical; conditions: 1 μM ATP; read-out: IC50, inhibitory activity toward TYK2
T1 construct: 2 nM wt human TYK2, catalytic site (SignalChem/CAN); purchased SignalChem/CAN
T1 sequence (P29597 897-1176 limits assumed): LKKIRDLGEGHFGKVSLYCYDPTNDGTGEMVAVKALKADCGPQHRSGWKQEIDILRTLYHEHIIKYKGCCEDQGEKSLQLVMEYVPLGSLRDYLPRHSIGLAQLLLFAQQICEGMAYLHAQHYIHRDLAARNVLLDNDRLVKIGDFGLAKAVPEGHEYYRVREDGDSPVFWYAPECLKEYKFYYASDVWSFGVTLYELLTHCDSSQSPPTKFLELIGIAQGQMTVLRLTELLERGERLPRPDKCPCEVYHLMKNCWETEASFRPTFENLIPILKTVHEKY
Experimental: Basic protocol for HTRF KinEASE assay (Cisbio/FRA) inhibitor studies involved two steps: Enzymatic step: Addition of 4 μl of test compound in corresponding DMSO dilutions, 4 μl of kinase/substrate mixture, 2 μl of ATP into 384 well small volume plates. Incubation for at least 30 minutes at room temperature.
Detection step: Addition of 5 μl antibody and 5 μl streptavidin-XL665, read plate after 60 minutes. Data analysis of emission ratios according to KinEASE assay protocol.
Kinase and assay components were adjusted to final concentrations according to the kit protocol. For TYK2: 2 nM wt human TYK2, catalytic site (SignalChem/CAN), 1 μM HTRF KinEASE-TK Substrate-biotin, 1 μM ATP in 1× Kinase Buffer

[2] = molecular target: T2, wt human NUAK1, full length (Homo sapiens, UniProt O60285); experiment: TR-FRET LanthaScreen Eu Kinase Binding Assay, NUAK1; conditions: 5 nM Kinase Tracer 236; read-out: IC50, inhibitory activity toward NUAK1
T2 construct: 8 nM wt human NUAK1, full length (ThermoFisher/USA); purchased ThermoFisher/USA
T2 sequence (O60285 1-661): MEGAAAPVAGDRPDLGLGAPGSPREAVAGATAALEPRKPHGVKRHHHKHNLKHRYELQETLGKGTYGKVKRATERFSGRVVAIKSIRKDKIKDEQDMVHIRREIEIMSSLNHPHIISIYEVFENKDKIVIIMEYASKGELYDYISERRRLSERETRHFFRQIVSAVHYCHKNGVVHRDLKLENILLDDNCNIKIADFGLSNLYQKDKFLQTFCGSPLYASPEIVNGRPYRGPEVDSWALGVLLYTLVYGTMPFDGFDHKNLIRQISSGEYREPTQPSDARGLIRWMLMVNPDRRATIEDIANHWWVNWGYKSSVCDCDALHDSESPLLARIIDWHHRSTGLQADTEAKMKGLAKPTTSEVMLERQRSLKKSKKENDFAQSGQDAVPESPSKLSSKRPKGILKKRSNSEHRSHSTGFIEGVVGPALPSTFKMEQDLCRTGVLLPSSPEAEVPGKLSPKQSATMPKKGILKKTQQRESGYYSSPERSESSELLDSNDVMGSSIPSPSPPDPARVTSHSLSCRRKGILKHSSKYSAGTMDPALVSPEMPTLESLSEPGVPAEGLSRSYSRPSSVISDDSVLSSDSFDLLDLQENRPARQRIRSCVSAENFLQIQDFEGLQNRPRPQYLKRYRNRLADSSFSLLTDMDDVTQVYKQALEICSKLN
Experimental: The basic protocol for TR-FRET LanthaScreen Eu Kinase Binding Assay inhibitor studies were performed as follows. LanthaScreen Kinase Binding Assays (ThermoFisher/USA) to evaluate inhibitors were performed by addition of 5 μl of test compound in corresponding DMSO dilutions/5 μl of kinase/antibody mixture, 5 μl of tracer into 384 well small volume plates. After incubation for 1 hour at room temperature, plates were read. Data analysis of emission ratios was according to LanthaScreen Eu Kinase Binding Assay protocol.
Kinase and assay components were adjusted to final concentrations according to the kit protocol. For LRRK2: 5 nM wt human LRRK2, catalytic site, or G2019S human LRRK2, catalytic site (ThermoFisher/USA), 2 nM Eu-Anti-GST Antibody, 10 nM Kinase Tracer 236 in 1× Kinase Buffer A. For NUAK1: 8 nM wt human NUAK1, full length (ThermoFisher/USA), 2 nM Eu-Anti-His Antibody, 5 nM Kinase Tracer 236 in 1× Kinase Buffer A.

SMILES | pIC50 [1] | pIC50 [2]
Fc1ccc(Cl)c(F)c1C1=Nc2ccccc2-c2[nH]ncc2N1 [Compound 18, 5-(3-chloro-2,6-difluorophenyl)-1,4-dihydrobenzo[d]pyrazolo[3,4-f][1,3]diazepine] | 6.00 to 7.00 | 6.00 to 7.00
Fc1cccc(F)c1C1=Nc2ccc(Cl)cc2-c2[nH]ncc2N1 [Compound 25, 9-chloro-5-(2,6-difluorophenyl)-1,4-dihydrobenzo[d]pyrazolo[3,4-f][1,3]diazepine] | 6.00 to 7.00 | 7.00 to 8.00
Fc1ccc(F)c(C2=Nc3ccccc3-c3[nH]ncc3N2)c1F [Compound 32, 5-(2,3,6-trifluorophenyl)-1,4-dihydrobenzo[d]pyrazolo[3,4-f][1,3]diazepine] | 6.00 to 7.00 | 6.00 to 7.00
Fc1ccc2c(c1)-c1[nH]ncc1N=C(c1c(F)cccc1F)N2 [Compound 33, 5-(2,6-difluorophenyl)-9-fluoro-1,6-dihydrobenzo[d]pyrazolo[3,4-f][1,3]diazepine] | 7.00 to 8.00 | 7.00 to 8.00
Fc1ccc2c(c1)-c1[nH]ncc1N=C(c1c(F)cccc1Cl)N2 [Compound 34, 5-(2-chloro-6-fluorophenyl)-9-fluoro-1,6-dihydrobenzo[d]pyrazolo[3,4-f][1,3]diazepine] | 7.00 to 8.00 | 7.00 to 8.00
Cc1ccc2c(c1)-c1[nH]ncc1N=C(c1c(F)cccc1Cl)N2 [Compound 35, 5-(2-chloro-6-fluorophenyl)-9-methyl-1,6-dihydrobenzo[d]pyrazolo[3,4-f][1,3]diazepine] | 6.00 to 7.00 | 7.00 to 8.00
Fc1cccc(Cl)c1C1=Nc2ccc(Cl)cc2-c2[nH]ncc2N1 [Compound 37, 9-chloro-5-(2-chloro-6-fluorophenyl)-1,4-dihydrobenzo[d]pyrazolo[3,4-f][1,3]diazepine] | 6.00 to 7.00 | 6.00 to 7.00
COc1ccc2c(c1)-c1[nH]ncc1N=C(c1c(F)cccc1F)N2 [Compound 38, 5-(2,6-difluorophenyl)-9-methoxy-1,6-dihydrobenzo[d]pyrazolo[3,4-f][1,3]diazepine] | 6.00 to 7.00 | 6.00 to 7.00
O=C(c1ccc2c(c1)N=C(c1c(F)cccc1F)Nc1cn[nH]c1-2)N1CCOCC1 [Compound 56, (5-(2,6-difluorophenyl)-1,4-dihydrobenzo[d]pyrazolo[3,4-f][1,3]diazepin-8-yl)(morpholino)methanone] | 6.00 to 7.00 | 
Fc1cccc(F)c1C1=Nc2cn[nH]c2-c2cn(C3CCOCC3)nc2N1 [Compound 60, 5-(2,6-difluorophenyl)-8-(tetrahydro-2H-pyran-4-yl)-6,8-dihydro-1H-dipyrazolo[3,4-d:3′,4′-f][1,3]diazepine] | 6.00 to 7.00 | 
O=C(c1ccc2c(c1)N=C(c1c(Cl)cccc1Cl)Nc1cn[nH]c1-2)N1CCOCC1 [Compound 79, (5-(2,6-dichlorophenyl)-1,4-dihydrobenzo[d]pyrazolo[3,4-f][1,3]diazepin-8-yl)(morpholino)methanone] | 6.00 to 7.00 | 
O=[N+]([O-])c1cccc(F)c1C1=Nc2cn[nH]c2-c2ccccc2N1 [Compound 106, 5-(2-fluoro-6-nitrophenyl)-1,6-dihydrobenzo[d]pyrazolo[3,4-f][1,3]diazepine] | 6.00 to 7.00 | 
O=[N+]([O-])c1ccc(F)c(C2=Nc3cn[nH]c3-c3ccccc3N2)c1F [Compound 107, 5-(2,6-difluoro-3-nitrophenyl)-1,6-dihydrobenzo[d]pyrazolo[3,4-f][1,3]diazepine] | 6.00 to 7.00 | 
O=[N+]([O-])c1cccc(F)c1C1=Nc2cn[nH]c2-c2cccnc2N1 [Compound 108, 5-(2-fluoro-6-nitrophenyl)-1,6-dihydropyrazolo[4,3-d]pyrido[3,2-f][1,3]diazepine] | 6.00 to 7.00 | 
COc1cccc(F)c1C1=Nc2cn[nH]c2-c2cccnc2N1 [Compound 119] | 6.00 to 7.00 | 
O=C(NC1CCOCC1)c1cc2c(cc1Cl)-c1n[nH]cc1N=C(c1c(F)cccc1F)N2 [Compound 199, 9-chloro-5-(2,6-difluorophenyl)-N-(tetrahydro-2H-pyran-4-yl)-2,6-dihydrobenzo[d]pyrazolo[3,4-f][1,3]diazepine-8-carboxamide] | 6.00 to 7.00 | 
Fc1cc2c(cc1OC1CCOCC1)N=C(c1c(Cl)cccc1C(F)(F)F)Nc1c[nH]nc1-2 [Compound 224, 5-(2-chloro-6-(trifluoromethyl)phenyl)-9-fluoro-8-((tetrahydro-2H-pyran-4-yl)oxy)-2,4-dihydrobenzo[d]pyrazolo[3,4-f][1,3]diazepine] | 7.00 to 8.00 | 
CCC(CC)Oc1cc2c(cc1F)-c1n[nH]cc1N=C(c1c(F)cccc1Cl)N2 [Compound 232, 5-(2-chloro-6-fluorophenyl)-9-fluoro-8-(pentan-3-yloxy)-2,6-dihydrobenzo[d]pyrazolo[3,4-f][1,3]diazepine] | 7.00 to 8.00 | 
Fc1cc2c(cc1Oc1ccccc1)N=C(c1c(F)cccc1Cl)Nc1c[nH]nc1-2 [Compound 244, 5-(2-chloro-6-fluorophenyl)-9-fluoro-8-phenoxy-2,4-dihydrobenzo[d]pyrazolo[3,4-f][1,3]diazepine] | 6.00 to 7.00 | 
CC[C@@H](C)Oc1cc2c(cc1F)-c1n[nH]cc1N=C(c1c(F)cccc1Cl)N2 [Compound 248, (R)-8-(sec-butoxy)-5-(2-chloro-6-fluorophenyl)-9-fluoro-2,6-dihydrobenzo[d]pyrazolo[3,4-f][1,3]diazepine] | 7.00 to 8.00 | 

Continued, values first:

pIC50 [1] | pIC50 [2] | SMILES
7.00 to 8.00 | 6.00 to 7.00 | Fc1cccc(F)c1C1=Nc2cn[nH]c2-c2ccccc2N1 [Compound 8, 5-(2,6-difluorophenyl)-1,6-dihydrobenzo[d]pyrazolo[3,4-f][1,3]diazepine]
6.00 to 7.00 | 7.00 to 8.00 | Fc1cccc(F)c1C1=Nc2ncccc2-c2[nH]ncc2N1 [Compound 11, 5-(2,6-difluorophenyl)-1,4-dihydropyrazolo[4,3-d]pyrido[3,2-f][1,3]diazepine]
7.00 to 8.00 | 7.00 to 8.00 | Fc1cccc(Cl)c1C1=Nc2ccccc2-c2[nH]ncc2N1 [Compound 27, 5-(2-chloro-6-fluorophenyl)-1,4-dihydrobenzo[d]pyrazolo[3,4-f][1,3]diazepine]
7.00 to 8.00 |  | Fc1cccc(Cl)c1C1=Nc2ncccc2-c2[nH]ncc2N1 [Compound 30, 5-(2-chloro-6-fluorophenyl)-1,4-dihydropyrazolo[4,3-d]pyrido[3,2-f][1,3]diazepine]
6.00 to 7.00 | 7.00 to 8.00 | Cc1ccc2c(c1)-c1[nH]ncc1N=C(c1c(F)cccc1F)N2 [Compound 36, 5-(2,6-difluorophenyl)-9-methyl-1,6-dihydrobenzo[d]pyrazolo[3,4-f][1,3]diazepine]
7.00 to 8.00 |  | Fc1cccc(F)c1C1=Nc2cn[nH]c2-c2[nH]ncc2N1 [Compound 66, 5-(2,6-difluorophenyl)-4,9-dihydro-1H-dipyrazolo[4,3-d:3′,4′-f][1,3]diazepine]
> 8.00 |  | NC(=O)c1ccc2c(c1)N=C(c1c(F)cccc1F)Nc1cn[nH]c1-2 [Compound 81, 5-(2,6-difluorophenyl)-1,4-dihydrobenzo[d]pyrazolo[3,4-f][1,3]diazepine-8-carboxamide]
6.00 to 7.00 |  | Fc1cccc(I)c1C1=Nc2ccccc2-c2[nH]ncc2N1 [Compound 111, 5-(2-fluoro-6-iodophenyl)-1,4-dihydrobenzo[d]pyrazolo[3,4-f][1,3]diazepine]
6.00 to 7.00 |  | Fc1ccc2c(c1F)N=C(c1c(F)cccc1F)Nc1cn[nH]c1-2 [Compound 170, 5-(2,6-difluorophenyl)-7,8-difluoro-1,4-dihydrobenzo[d]pyrazolo[3,4-f][1,3]diazepine]
